Patent US11058636B2, “Dispersion process of adapalene in a gel preparation” (ZHAOKE (GUANGZHOU) OPHTHALMIC DRUG COMPANY LIMITED, priority 2017, dated 2021)
Read-outs that look alike come from different tables or passages of the source.

Tests used:
[1] = tested on: glutamine invertase of keratinocytes; conditions: in vitro; cited from earlier work
[2] = target: T1, RARα (Homo sapiens, UniProt P10276); conditions: cited from earlier work
T1 sequence (P10276 1-462): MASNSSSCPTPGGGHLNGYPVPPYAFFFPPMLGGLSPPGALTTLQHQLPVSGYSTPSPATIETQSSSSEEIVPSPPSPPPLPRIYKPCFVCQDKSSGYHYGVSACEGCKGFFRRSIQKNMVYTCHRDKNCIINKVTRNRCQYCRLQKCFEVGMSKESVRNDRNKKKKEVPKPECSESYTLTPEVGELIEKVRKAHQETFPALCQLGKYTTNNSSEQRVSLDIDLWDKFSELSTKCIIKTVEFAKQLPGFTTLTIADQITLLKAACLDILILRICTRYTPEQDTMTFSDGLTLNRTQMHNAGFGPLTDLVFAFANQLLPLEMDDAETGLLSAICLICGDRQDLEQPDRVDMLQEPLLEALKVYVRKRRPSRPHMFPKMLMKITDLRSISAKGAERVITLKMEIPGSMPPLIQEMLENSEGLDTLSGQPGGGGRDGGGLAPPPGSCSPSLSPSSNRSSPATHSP

[3] = cited from earlier work
[4] = Particle size of pulverized adapalene raw material, laser particle size analyzer, dry detection; assay type: physicochemical; conditions: raw material after jet-mill pulverization, dry method detection (Example 3)
Description: Method: Taking the appropriate amount of this product, using Malvern MS3000 laser particle size analyzer, dry detection, D50 should not greater than 10 μm, D90 should not greater than 30 um.
After pulverization the raw materials of adapalene was subjected to dry method detection and D50 was found not more than 10 um, D90 was found not more than 30 um. Adapalene was pulverized using a jet mill to achieve the target particle size.

[5] = target: T2, RARγ (Homo sapiens, UniProt P13631); conditions: cited from earlier work
T2 sequence (P13631 1-454): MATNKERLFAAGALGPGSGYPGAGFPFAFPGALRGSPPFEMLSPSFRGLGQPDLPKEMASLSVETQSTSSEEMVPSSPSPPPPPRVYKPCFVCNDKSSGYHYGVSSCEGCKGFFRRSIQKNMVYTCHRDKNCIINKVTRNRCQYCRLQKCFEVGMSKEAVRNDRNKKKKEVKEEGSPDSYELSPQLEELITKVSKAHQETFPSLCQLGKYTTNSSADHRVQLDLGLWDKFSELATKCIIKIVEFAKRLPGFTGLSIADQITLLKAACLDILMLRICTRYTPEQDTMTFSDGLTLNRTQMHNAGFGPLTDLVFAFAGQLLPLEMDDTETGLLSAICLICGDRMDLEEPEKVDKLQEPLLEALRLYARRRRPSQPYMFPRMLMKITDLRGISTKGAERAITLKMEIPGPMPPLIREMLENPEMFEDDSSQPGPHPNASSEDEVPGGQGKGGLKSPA

[6] = tested on: acne; conditions: animals; cited from earlier work
[7] = target: T3, RARPβ (Homo sapiens, UniProt P10826); conditions: cited from earlier work
T3 sequence (P10826 1-455): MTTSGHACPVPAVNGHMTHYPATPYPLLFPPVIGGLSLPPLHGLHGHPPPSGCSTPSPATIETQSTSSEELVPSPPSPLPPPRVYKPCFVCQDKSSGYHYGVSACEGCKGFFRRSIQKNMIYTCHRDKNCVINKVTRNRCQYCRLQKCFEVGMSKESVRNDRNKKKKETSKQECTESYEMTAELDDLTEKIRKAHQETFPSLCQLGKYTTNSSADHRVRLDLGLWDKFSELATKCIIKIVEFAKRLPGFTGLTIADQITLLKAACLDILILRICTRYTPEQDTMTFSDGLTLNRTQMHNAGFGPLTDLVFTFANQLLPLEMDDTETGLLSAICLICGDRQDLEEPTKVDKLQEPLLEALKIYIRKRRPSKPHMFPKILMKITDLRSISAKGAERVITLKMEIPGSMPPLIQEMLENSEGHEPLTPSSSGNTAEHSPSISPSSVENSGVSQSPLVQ

D50 [4]: not more than 10 um | D90 [4]: not more than 30 um
Structure (SMILES): COc1ccc(-c2ccc3cc(C(=O)O)ccc3c2)cc1C12CC3CC(CC(C3)C1)C2 [Adapalene, 6-[3-(1-adamantyl)-4-methoxyphenyl]-2-naphthoic acid]
inhibition of glutamine invertase of keratinocytes [1]: inhibits | binding to RARα [2]: weak binding | solubility ([3]; in ethanol): insoluble | solubility ([3]; in tetrahydrofuran): slightly soluble | solubility ([3]; in water): insoluble | binding to RARγ [5]: mainly binds | effects in animal experiments [6]: acne dissolution and local anti-inflammatory effects | binding to RARPβ [7]: mainly binds
